Values of other authors in patent US20220257649A1, “COMBINATION THERAPIES FOR MULTIPLE MYELOMA” (NantCell, Inc., priority 2018, published 2022).
Each block holds one molecule with its values, some of them ahead of it.

Columns and labels:
multiple myeloma = details: for rate of nearly complete response (CR): in combination with dexamethasone, induction therapy before ASCT; for rate of nearly CR: three-drug induction schedule: bortezomib-dexamethasone plus the named drug
[1] = tested on: primary multiple myeloma cells; details: in the presence of peripheral lymphocytes
[2] = tested on: relapsed or refractory multiple myeloma; details: alone, with bortezomib, or with lenalidomide and low-dose dexamethasone
IL-2Rβγ = target: T1, IL-2Rβγ (Homo sapiens, UniProt P14784+P31785); details: IL-15 mutant
T1 sequence (P14784 27-551): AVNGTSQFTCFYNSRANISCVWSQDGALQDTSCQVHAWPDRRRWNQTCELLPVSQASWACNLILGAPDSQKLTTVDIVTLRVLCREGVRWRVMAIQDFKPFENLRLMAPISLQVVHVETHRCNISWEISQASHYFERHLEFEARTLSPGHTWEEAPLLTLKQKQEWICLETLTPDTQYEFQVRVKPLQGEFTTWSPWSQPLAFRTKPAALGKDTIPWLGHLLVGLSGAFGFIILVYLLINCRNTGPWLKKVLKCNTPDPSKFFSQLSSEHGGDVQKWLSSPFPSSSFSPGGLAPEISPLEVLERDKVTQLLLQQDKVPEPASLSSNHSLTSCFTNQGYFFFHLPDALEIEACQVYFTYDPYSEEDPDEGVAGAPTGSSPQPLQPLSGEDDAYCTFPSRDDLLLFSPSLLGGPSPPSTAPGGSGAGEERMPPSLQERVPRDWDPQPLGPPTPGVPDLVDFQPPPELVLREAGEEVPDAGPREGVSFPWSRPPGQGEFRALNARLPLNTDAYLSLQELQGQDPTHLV
T1 sequence (P31785 23-369): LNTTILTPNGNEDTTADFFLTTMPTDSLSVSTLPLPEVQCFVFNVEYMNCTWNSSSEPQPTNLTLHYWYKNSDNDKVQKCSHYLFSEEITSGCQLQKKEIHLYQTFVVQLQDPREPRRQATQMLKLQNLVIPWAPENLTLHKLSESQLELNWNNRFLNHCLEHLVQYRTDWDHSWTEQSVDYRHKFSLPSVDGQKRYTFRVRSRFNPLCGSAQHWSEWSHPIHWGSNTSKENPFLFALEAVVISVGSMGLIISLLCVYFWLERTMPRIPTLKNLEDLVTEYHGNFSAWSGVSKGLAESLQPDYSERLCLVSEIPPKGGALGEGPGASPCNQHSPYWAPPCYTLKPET

[3] = following i.v. administration in mice
[4] = tested on: aggressive solid and hematological tumor models
IL-15 activity = details: in vitro and in vivo

Molecule: O=C1CCC(N2C(=O)c3ccccc3C2=O)C(=O)N1 (stereo not drawn) [Thalidomide]
rate of nearly complete response (CR) (multiple myeloma): 8% | rate of nearly CR (multiple myeloma): 32%

Molecule: CC(C)C[C@H](NC(=O)[C@H](Cc1ccccc1)NC(=O)c1cnccn1)B(O)O [bortezomib]
rate of nearly complete response (CR) (multiple myeloma): 16%

Molecule: O=P1(N(CCCl)CCCl)NCCCO1 (stereo not drawn) [cyclophosphamide]
rate of nearly CR (multiple myeloma): 39%

Molecule: COc1cccc2c1C(=O)c1c(O)c3c(c(O)c1C2=O)C[C@@](O)(C(=O)CO)C[C@@H]3O[C@H]1C[C@H](N)[C@H](O)[C@H](C)O1 [doxorubicin]
rate of nearly CR (multiple myeloma): 7%

Molecule: Nc1cccc2c1CN(C1CCC(=O)NC1=O)C2=O (stereo not drawn) [lenalidomide]
rate of nearly complete response (CR) (multiple myeloma): 15% | rate of nearly CR (multiple myeloma): 57%

Molecule: Elotuzumab: humanized monoclonal IgG1 antibody directed against CS-1
antibody-dependent cellular cytotoxicity (ADCC) [1]: significant antibody-dependent cellular cytotoxicity (ADCC) | activity [2]: encouraging activity | safety profile [2]: manageable safety profile

ability to bind IL-2Rβγ (IL-2Rβγ): increased ability to bind IL-2Rβγ
Molecule: IL-15N72D: IL-15 mutant with increased ability to bind IL-2Rβγ; component of N-803

Molecule: N-803: IL-15 super agonist complex: IL-15 mutant (IL-15N72D) bound to an IL-15 receptor α/IgG1 Fc fusion protein
half-life [3]: 25 h | anti-tumor activity ([4]; aggressive solid and hematological tumor models, immunocompetent mice): impressive anti-tumor activity | resistance of cured tumor-bearing mice to re-challenge with the same tumor cells ([4]; mice cured after N-803 treatment): highly resistant to re- challenge | IL-15 activity (IL-15 activity): highly potent IL-15 activity
